Assay results taken from the GenesisPotency data set.
pIC50, pKi: −log10 of the molar value.

Assays:
[1] = molecular target: T1, Muscarinic acetylcholine receptor M5, Homo sapiens (UniProt P08912)
T1 sequence (whole entry): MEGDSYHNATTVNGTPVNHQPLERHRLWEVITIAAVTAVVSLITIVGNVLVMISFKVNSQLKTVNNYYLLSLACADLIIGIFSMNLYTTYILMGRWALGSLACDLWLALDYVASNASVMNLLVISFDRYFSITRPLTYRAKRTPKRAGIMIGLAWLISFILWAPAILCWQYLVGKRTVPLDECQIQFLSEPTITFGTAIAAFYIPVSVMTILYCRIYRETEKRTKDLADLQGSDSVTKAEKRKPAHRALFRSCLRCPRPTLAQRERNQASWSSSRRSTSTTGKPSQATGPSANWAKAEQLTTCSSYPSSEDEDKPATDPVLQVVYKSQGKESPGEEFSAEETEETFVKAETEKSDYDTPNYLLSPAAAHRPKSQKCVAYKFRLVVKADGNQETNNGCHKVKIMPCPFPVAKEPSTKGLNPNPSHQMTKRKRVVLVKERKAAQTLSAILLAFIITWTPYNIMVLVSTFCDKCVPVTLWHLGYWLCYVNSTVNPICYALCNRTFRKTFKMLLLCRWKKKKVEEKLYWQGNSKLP

[2] = molecular target: Carbonic anhydrase 2, Homo sapiens (UniProt P00918)
[3] = molecular target: Delta-type opioid receptor, Mus musculus (UniProt P32300)
[4] = molecular target: Carbonic anhydrase 2, Homo sapiens (UniProt P00918); remark: listed apart in the source
[5] = molecular target: T2, Carbonic anhydrase, Pseudomonas aeruginosa (strain ATCC 15692 / DSM 22644 / CIP 104116 / JCM 14847 / LMG 12228 / 1C / PRS 101 / PAO1) (UniProt Q9HVB9)
T2 sequence (whole entry): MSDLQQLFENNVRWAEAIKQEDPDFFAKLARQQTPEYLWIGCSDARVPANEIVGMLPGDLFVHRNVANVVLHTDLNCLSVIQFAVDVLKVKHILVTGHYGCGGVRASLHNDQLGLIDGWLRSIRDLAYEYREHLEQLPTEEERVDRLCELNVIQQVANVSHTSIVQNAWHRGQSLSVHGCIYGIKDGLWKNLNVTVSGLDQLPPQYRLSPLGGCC

[6] = molecular target: T3, Carbonic anhydrase, Methanosarcina thermophila (strain ATCC 43570 / DSM 1825 / OCM 12 / VKM B-1830 / TM-1) (UniProt P40881)
T3 sequence (whole entry): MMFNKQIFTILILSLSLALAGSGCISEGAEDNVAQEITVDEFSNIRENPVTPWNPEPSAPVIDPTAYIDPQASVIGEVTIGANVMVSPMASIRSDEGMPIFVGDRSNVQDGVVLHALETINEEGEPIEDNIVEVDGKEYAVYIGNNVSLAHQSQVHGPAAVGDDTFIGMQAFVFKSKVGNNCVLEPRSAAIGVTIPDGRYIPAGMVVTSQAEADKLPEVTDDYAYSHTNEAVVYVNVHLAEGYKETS

[7] = molecular target: T4, Glycylpeptide N-tetradecanoyltransferase, Trypanosoma brucei brucei (strain 927/4 GUTat10.1) (UniProt Q388H8)
T4 sequence (whole entry): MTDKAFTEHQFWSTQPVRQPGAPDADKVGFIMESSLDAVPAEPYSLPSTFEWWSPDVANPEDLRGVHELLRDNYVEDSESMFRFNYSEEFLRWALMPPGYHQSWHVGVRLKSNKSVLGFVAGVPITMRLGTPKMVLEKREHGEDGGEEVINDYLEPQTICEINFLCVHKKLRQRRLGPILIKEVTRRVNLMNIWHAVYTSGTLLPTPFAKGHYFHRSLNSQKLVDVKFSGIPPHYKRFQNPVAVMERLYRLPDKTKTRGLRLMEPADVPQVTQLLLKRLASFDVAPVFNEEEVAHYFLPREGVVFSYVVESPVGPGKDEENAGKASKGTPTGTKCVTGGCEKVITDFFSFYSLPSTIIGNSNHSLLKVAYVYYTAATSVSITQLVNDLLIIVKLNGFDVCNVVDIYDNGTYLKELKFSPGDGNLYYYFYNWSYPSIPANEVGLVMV

[8] = molecular target: T5, Mitogen-activated protein kinase kinase kinase 7/TGF-beta-activated kinase 1 and MAP3K7-binding protein 1, Homo sapiens (UniProt O43318+Q15750)
T5 sequence (whole entry): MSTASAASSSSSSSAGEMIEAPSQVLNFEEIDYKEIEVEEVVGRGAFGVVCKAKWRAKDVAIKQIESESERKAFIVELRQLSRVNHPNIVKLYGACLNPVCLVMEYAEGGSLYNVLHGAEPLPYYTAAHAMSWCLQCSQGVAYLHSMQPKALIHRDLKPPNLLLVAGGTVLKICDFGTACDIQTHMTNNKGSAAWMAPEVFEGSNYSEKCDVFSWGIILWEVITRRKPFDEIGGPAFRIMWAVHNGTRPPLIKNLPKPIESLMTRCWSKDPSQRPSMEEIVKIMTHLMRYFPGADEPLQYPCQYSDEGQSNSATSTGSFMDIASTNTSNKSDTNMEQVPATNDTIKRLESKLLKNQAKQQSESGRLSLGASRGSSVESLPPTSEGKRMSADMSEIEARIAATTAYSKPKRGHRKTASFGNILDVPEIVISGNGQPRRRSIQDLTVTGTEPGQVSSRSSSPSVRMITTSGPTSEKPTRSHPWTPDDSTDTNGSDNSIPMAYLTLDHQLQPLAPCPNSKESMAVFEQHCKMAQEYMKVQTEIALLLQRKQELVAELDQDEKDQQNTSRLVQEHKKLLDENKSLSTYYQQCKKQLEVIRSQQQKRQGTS

[9] = molecular target: Inositol hexakisphosphate kinase 1, Homo sapiens (UniProt Q92551)
Sequence of Inositol hexakisphosphate kinase 1, Homo sapiens (Q92551 whole entry, looked up): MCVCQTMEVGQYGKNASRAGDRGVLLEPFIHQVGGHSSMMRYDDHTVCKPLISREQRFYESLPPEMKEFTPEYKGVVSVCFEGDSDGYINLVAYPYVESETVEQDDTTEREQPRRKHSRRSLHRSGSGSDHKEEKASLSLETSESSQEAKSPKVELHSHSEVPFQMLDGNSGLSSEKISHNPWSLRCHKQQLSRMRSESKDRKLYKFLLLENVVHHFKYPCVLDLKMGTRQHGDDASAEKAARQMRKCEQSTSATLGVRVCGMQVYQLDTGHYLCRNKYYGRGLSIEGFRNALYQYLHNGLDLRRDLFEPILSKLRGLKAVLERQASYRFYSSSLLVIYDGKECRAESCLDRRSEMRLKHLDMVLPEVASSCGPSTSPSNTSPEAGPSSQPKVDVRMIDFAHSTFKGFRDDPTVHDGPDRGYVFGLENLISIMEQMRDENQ

Sequence of Delta-type opioid receptor, Mus musculus (P32300 whole entry): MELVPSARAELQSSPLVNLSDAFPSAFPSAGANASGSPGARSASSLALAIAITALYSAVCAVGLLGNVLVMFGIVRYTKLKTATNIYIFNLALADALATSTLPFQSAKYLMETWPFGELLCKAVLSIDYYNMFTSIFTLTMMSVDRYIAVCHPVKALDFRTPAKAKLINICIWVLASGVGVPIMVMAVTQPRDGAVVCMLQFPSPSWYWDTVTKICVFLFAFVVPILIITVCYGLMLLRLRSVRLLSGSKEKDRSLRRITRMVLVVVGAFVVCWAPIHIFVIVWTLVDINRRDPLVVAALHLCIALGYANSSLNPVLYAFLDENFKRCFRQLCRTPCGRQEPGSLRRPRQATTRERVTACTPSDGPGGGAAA

Structure (SMILES): O=c1c(OC2C(O)OC(CO)C(O)C2O)c(-c2ccc(O)c(O)c2)oc2cc(O)cc(O)c12 (stereo not given)
- pKi [1]: < 5.00

Structure (SMILES): CC(C)[C@H]1NC(=O)[C@@H](C)[C@@H](CC=CCCC(=O)O)NC(=O)[C@@H](Cc2ccc(O)cc2)NC(=O)[C@@H](C)NC1=O
- pKi [2]: < 5.00

Structure (SMILES): CC(C)[C@H]1NC(=O)[C@@H](C)[C@@H](CC=CCCC(N)=O)NC(=O)[C@@H](Cc2ccc(O)cc2)NC(=O)[C@@H](C)NC1=O
- pKi [2]: < 5.00

Structure (SMILES): COc1cc2c(c(OC)c1OC)-c1cc3c(cc1C(=O)[C@@H]1COC(=O)[C@H]1C2)OCO3
- pIC50 [3]: < 5.00

Structure (SMILES): C=CC(=O)Nc1ccc(Cn2nc(-c3ccc4[nH]c(C)nc4c3)c3c(N)ncnc32)cc1
- pKi [4]: < 0.70
- pKi [5]: < 1.00
- pKi [6]: < 0.70

Structure (SMILES): Cc1nn(C)c(C)c1N[SH+]([O-])c1c(Cl)cc(-c2ccc(OC(F)(F)F)cc2)cc1-c1ccc(OC(F)(F)F)cc1 (stereo not given)
- pIC50 [7]: < 4.00

Structure (SMILES): O=C1CSC(/N=N/c2c(O)[nH]c3ccccc23)=N1
- pIC50 [8]: < 5.30

Structure (SMILES): O=[N+](O)c1ccc(CNc2nc(NCc3cccc(C(F)(F)F)c3)nc3[nH]cnc23)cc1
- pIC50 [9]: > 3.70
